Experimental data published in PubChem BioAssay (NCI).
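48-hour exposure; five concentrations; linearly interpolated endpoints. TGI: total growth inhibition.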

Key:
Test in all cases: NCI tumour cell line growth inhibition, 48 h
A549 NSCLC = system: A549 NSCLC
CAKI-1 renal = system: CAKI-1 renal
COLO 205 colon = system: COLO 205 colon
KM12 colon = system: KM12 colon
MALME-3M melanoma = system: MALME-3M melanoma
MOLT-4 leukemia = system: MOLT-4 leukemia
NCI-H522 lung = system: NCI-H522 lung
OVCAR-4 ovarian = system: OVCAR-4 ovarian
RXF 393 renal = system: RXF 393 renal
SF-268 CNS = system: SF-268 CNS
SK-MEL-2 melanoma = system: SK-MEL-2 melanoma
SK-MEL-5 melanoma = system: SK-MEL-5 melanoma
SR leukemia = system: SR leukemia
UACC-62 melanoma = system: UACC-62 melanoma
UO-31 renal = system: UO-31 renal
HOP-62 NSCLC = system: HOP-62 NSCLC
OVCAR-8 ovarian = system: OVCAR-8 ovarian
RPMI-8226 leukemia = system: RPMI-8226 leukemia
U251 CNS = system: U251 CNS

| SMILES | TGI (A549 NSCLC) | TGI (CAKI-1 renal) | TGI (COLO 205 colon) | TGI (KM12 colon) | TGI (MALME-3M melanoma) | TGI (MOLT-4 leukemia) | TGI (NCI-H522 lung) | TGI (OVCAR-4 ovarian) | TGI (RXF 393 renal) | TGI (SF-268 CNS) | TGI (SK-MEL-2 melanoma) | TGI (SK-MEL-5 melanoma) | TGI (SR leukemia) | TGI (UACC-62 melanoma) | TGI (UO-31 renal) | TGI (HOP-62 NSCLC) | TGI (OVCAR-8 ovarian) | TGI (RPMI-8226 leukemia) | TGI (U251 CNS) |
| --- | --- | --- | --- | --- | --- | --- | --- | --- | --- | --- | --- | --- | --- | --- | --- | --- | --- | --- | --- |
| CCOC(=O)c1c2ccc(/C=C/c3ccccc3)ccc-2c(C(=O)OCC)c1N | > 100 µM | > 100 µM | > 100 µM | > 100 µM | > 100 µM | > 100 µM | > 100 µM | > 100 µM | > 100 µM | > 100 µM | > 100 µM | > 100 µM | > 100 µM | > 100 µM | > 100 µM |  |  |  |  |
| O=S(=O)(Oc1ccc2ccccc2c1-c1c(OS(=O)(=O)C(F)(F)F)ccc2ccccc12)C(F)(F)F | > 100 µM | > 100 µM | > 100 µM | > 100 µM | > 100 µM | > 100 µM | > 100 µM | > 100 µM | > 100 µM | > 100 µM | > 100 µM | > 100 µM | > 100 µM | > 100 µM | > 100 µM | > 100 µM | > 100 µM | > 100 µM | > 100 µM |
| CCSc1nnc(-c2ccccc2)nc1Cc1ccc(OC)cc1 | > 100 µM |  | > 100 µM | > 100 µM | > 100 µM | > 100 µM | > 100 µM | > 100 µM | > 100 µM | > 100 µM | > 100 µM |  | > 100 µM | > 100 µM | > 100 µM | > 100 µM | > 100 µM | > 100 µM | > 100 µM |
| CCn1c(O)c(C=Nc2ccccc2)s/c1=N/Nc1nc(-c2ccc(O)c(O)c2)cs1 | > 100 µM | > 100 µM | > 100 µM | > 100 µM | > 100 µM | 92.2 µM | 98.2 µM | > 100 µM | > 100 µM | > 100 µM | > 100 µM | > 100 µM | 15.9 µM | > 100 µM | > 100 µM | > 100 µM | > 100 µM | 46.6 µM | > 100 µM |
| CC(NC(=O)OC(C)(C)C)C(=O)NC(Cc1ccccc1)C(=O)NCC(=O)Oc1c(Cl)c(Cl)c(Cl)c(Cl)c1Cl (configuration not stated) | 48.1 µM |  | 70.9 µM | > 100 µM | 49.2 µM | 59.3 µM |  |  | 35.4 µM |  | 73.1 µM | 27.4 µM | 64.7 µM | 50.4 µM | 33.9 µM | 37.4 µM | 43.9 µM | 54.9 µM | 46.7 µM |
| Cc1c/c(=N/NC(=O)c2ccncc2)n2nc(N)sc2n1 | > 100 µM | > 100 µM | > 100 µM | > 100 µM |  | > 100 µM | > 100 µM | > 100 µM | > 100 µM |  | > 100 µM | > 100 µM | > 100 µM | > 100 µM | > 100 µM | > 100 µM | > 100 µM | > 100 µM | > 100 µM |
| COC(=O)C(Cc1nc2ccccc2[nH]c1=O)C(=O)C(=O)Nc1ccc(F)cc1 (configuration not stated) | > 100 µM | > 100 µM | > 100 µM | > 100 µM | 79.5 µM | > 100 µM | 22.3 µM | > 100 µM | 47.1 µM | 56.4 µM | > 100 µM | > 100 µM | > 100 µM | 67.8 µM | > 100 µM | > 100 µM | 38.6 µM |  |  |
| Cc1cccc(C)c1N1C(=O)C2c3[nH]c4ccccc4c3C3CCC(C(C)(C)C)CC3C2C1=O (configuration not stated) | > 100 µM | 26.8 µM | 24 µM |  | 28.2 µM | > 100 µM |  |  | 26.3 µM | 39 µM | 33.7 µM | 28.6 µM | > 100 µM | 36.2 µM | 26 µM | 13.7 µM | 37 µM | > 100 µM | 36.6 µM |
| O=C(O)COc1ccc(C(=O)/C(SS/C(C(=O)c2ccc(OCC(=O)O)c(Cl)c2Cl)=C2\C=C(c3ccccc3Cl)SS2)=C2/C=C(c3ccccc3Cl)SS2)c(Cl)c1Cl | > 100 µM | > 94.7 µM | > 77.1 µM | > 71.4 µM | > 100 µM | 53.6 µM | 11.3 µM | 57.1 µM |  | > 88.3 µM | 50 µM | 49 µM | 6.91 µM | 69.5 µM | 68.2 µM | > 100 µM | > 100 µM | 42.5 µM | 36.5 µM |
| COc1c(C)c(O)c2c(c1C)OC(c1ccccc1)CC2=O (configuration not stated) | > 100 µM | > 100 µM |  | > 100 µM | 83.1 µM | > 100 µM | > 100 µM | > 100 µM |  | > 100 µM | 74.1 µM |  | 75.5 µM | > 100 µM | > 100 µM | > 100 µM | > 100 µM | > 100 µM | > 100 µM |
| CCOC(=O)CC(NCc1ccc(N=Cc2nc3ccc(C(F)(F)F)cc3nc2-c2ccccc2)cc1)C(=O)OCC (configuration not stated) | > 100 µM | > 100 µM | > 100 µM | > 100 µM | > 100 µM | > 100 µM | > 100 µM | > 100 µM | 56 µM | > 100 µM | > 73.3 µM | > 100 µM | > 100 µM | 68.3 µM | > 100 µM | > 81.7 µM | > 100 µM | > 100 µM | > 100 µM |
| COC(=O)/C=C(\C)CC/C=C(\C)CCC(O)C(C)(C)O (configuration not stated) | > 100 µM | 48.5 µM | 38.3 µM | 28.4 µM | 41.5 µM | 39 µM |  | > 100 µM | 59.9 µM |  | 36.3 µM | 33.4 µM | 44.6 µM | 77.9 µM | > 100 µM | 78 µM | 67 µM |  | 79.3 µM |
| COC1=CC(=O)C2C(C1=O)C(c1ccc(Cl)cc1)[C@@H]2C (some centres not stated) | > 100 µM | > 100 µM | > 100 µM | > 100 µM | 46 µM | 81.7 µM | 29.8 µM | > 100 µM | 79.1 µM | 92.7 µM | > 100 µM | 41.2 µM |  | 63 µM | 63.6 µM | > 100 µM | 67.4 µM | > 100 µM | 62.9 µM |
